According to doi:10.1101/611376v1 (biorxiv, 2019):

Target: human insulin (hINS) (Homo sapiens, UniProt P01308)
Assay: isothermal titration calorimetry
Format: binding

human insulin (hINS), sequence (P01308 25-54): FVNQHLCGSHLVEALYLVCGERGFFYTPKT
human insulin (hINS), sequence (P01308 90-110): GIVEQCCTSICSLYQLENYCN

`Oc1ccc(/C=C/c2cc(O)cc(O)c2)cc1` [resveratrol, trans-3,4,5-trihydroxystilbene] was tested, and the Kd was 12.8 µM.
